Patent US8673983B2, “Melanins synthesized chemically or via enzyme catalysis” (priority 2007, dated 2014)
In brackets after ≈: the same amount, converted by molar mass.

Assays:
physchem = settings: 30 °C, pH 7, aqueous buffer, thermodynamic from solid
HSV-1 = assay: microbe, parasite or virus in culture; type: cell-based; settings: Human alphaherpesvirus 1, HFF, read-out: ACV EC50
HSV-2 = assay: microbe, parasite or virus in culture; type: cell-based; settings: Human alphaherpesvirus 2, HFF, read-out: ACV EC50
in vitro = settings: human
[1] = system: PPO enzyme (E.C. 1.10.3.1) from banana (Musa sapientum) skin; assay: test of potential melanogenic substrates of banana PPO (pigment formation vs blank); type: biochemical; settings: pH 7
[2] = system: cultured human foreskin fibroblasts

O=c1c(O)c(-c2ccc(O)c(O)c2)oc2cc(O)cc(O)c12 [Quercetin, 2-(3,4-dihydroxyphenyl)-3,5,7-trihydroxy-4H-1-benzopyran-4-one]
solubility (physchem): < 2000 µg/mL

Nc1nc2c(ncn2COCCO)c(=O)[nH]1 [ACV, Acyclovir]
EC50 (HSV-1): 1.1 µg/mL (≈ 0.00488 mM)
EC50 (HSV-2): 1.4 µg/mL (≈ 0.00622 mM)
CC50 (in vitro): > 100 µg/mL

O=C(O)c1cc(O)c(O)c(O)c1 [Gallic acid, 3,4,5-trihydroxybenzoic acid]
solubility (physchem): < 2000 µg/mL

Nc1nc(O)c2ncn(COC(CO)CO)c2n1 [GCV, ganciclovir]
CC50 (in vitro): > 100 µg/mL

O=C1c2ccccc2C(=O)c2c1ccc(O)c2O [Alizarin, 1,2-dihydroxy-anthraquinone]
PPO Substrate [1]: Y
solubility (physchem): < 2000 µg/mL

Oc1cccc(O)c1O [Pyrogallol, 1,2,3-trihydroxvbenzene]
solubility (physchem): < 2000 µg/mL

O=C(O)c1ccc(O)c(O)c1 [Protocatechuric acid, 3,4-dihydroxybenzoic acid]
PPO Substrate [1]: Y
solubility (physchem): > 2000 µg/mL

Nordihydroguaiuretic acid
Toxicity [2]: N

5,6,7 trihydroxyflavanone [Baicalein]
PPO Substrate [1]: Y

O=C(O)Cc1ccc(O)c(O)c1 [DOPAC, 3,4-dihydroxyphenylacetic acid]
solubility (physchem): > 2000 µg/mL

O=C(O)C=Cc1ccc(O)c(O)c1 [Caffeic acid, 3,4-dihydroxycinnamic acid]
solubility (physchem): > 2000 µg/mL

O=c1ccc2cc(O)c(O)cc2o1 [Esculetin, 6,7 Dihydroxvcoumarin]
PPO Substrate [1]: Y
solubility (physchem): < 2000 µg/mL

NCCc1c[nH]c2ccc(O)cc12 [Serotonin, 5-hydroxytryptamine]
PPO Substrate [1]: Y
